As a reminder, the IC50 is the concentration that inhibits the measured activity by half.

The text below walks through data of patent publication US20240058283A1, “THE MODE OF ACTION OF N-MeDCPA ON TRPC CHANNELS” (West Virginia University Board of Governors on Behalf of …, priority 2022, published 2024).

For series [1], the target named is T1, TRPC6 (Homo sapiens, UniProt Q9Y210).
T1 construct: expressed in transfected cells
T1 sequence (Q9Y210 1-931): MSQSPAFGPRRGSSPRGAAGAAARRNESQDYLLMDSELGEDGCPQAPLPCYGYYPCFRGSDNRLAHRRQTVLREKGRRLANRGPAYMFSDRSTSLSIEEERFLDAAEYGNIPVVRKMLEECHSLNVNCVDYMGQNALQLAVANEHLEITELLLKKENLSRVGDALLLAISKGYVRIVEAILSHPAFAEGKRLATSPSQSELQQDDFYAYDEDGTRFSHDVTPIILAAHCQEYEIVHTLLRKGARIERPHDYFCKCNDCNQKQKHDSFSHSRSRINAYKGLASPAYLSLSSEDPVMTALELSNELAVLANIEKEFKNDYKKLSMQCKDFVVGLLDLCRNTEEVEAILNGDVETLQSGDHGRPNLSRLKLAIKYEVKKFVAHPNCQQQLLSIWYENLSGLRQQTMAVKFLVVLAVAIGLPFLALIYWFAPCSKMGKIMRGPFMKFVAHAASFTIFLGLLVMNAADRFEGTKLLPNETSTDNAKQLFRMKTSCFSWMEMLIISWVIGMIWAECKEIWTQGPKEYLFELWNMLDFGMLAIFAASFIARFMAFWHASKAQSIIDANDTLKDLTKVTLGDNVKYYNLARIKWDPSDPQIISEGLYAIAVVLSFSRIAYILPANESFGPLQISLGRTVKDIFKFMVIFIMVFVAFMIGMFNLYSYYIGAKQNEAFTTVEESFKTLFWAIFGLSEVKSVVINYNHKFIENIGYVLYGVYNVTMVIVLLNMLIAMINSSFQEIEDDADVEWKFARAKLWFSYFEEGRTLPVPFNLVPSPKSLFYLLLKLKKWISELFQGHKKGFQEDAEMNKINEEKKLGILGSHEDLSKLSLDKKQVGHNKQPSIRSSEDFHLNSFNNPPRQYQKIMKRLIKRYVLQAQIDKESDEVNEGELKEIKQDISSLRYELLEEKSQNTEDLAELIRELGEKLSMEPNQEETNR
In words: OAG-induced Ca2+ entry in Fura2-loaded HEK293 cells expressing TRPC6. Format: cell-based. Conditions: ELP-004 0 to 1 mM for 10 minutes before OAG, FIG. 1D, read-out: IC50, inhibition of OAG-induced Ca2+ entry. On the procedure:
Inhibition of DAG-mediated TRPC activation. To determine if ELP-004 (N-MeDCPA) inhibits DAG-induced TRPC activation, HEK293 cells expressing TRPC3, TRPC6 or TRPC7 were loaded with Fura2 and incubated with ELP-004 (0 to 1 mM) for 10 minutes prior to challenging with 1-Oleoyl-2-acetyl-sn-glycerol (OAG), a membrane permeable form of diacylglycerol.
Cell Culture—HEK293 cells were grown in DMEM with 4.5 g/L glucose supplemented with 10% FBS and 1% Gentamycin (Full DMEM media; Thermo-Fisher Scientific, Waltham, MA) at 37° C. and 5% CO2. […]
TRPC activity assay—Cells grown on glass coverslips were incubated in a cation-safe buffer (107 mM NaCl, 7.2 mM KCl, 1.2 mM MgCl2, 11.5 mM Glucose, 20 mM HEPES-NaOH, 1 mM CaCl2), pH 7.2) and loaded with Fura2-acetoxymethylester (Fura2-AM; 2 μM) for 30 min at 24° C. as previously described^10,11. […] Ca^2+/Sr^2+ measurements were taken using a Leica DMI 6000B fluorescence microscope controlled by Slidebook software (Intelligent Imaging Innovations, Denver, CO). Fluorescence emission at 505 nm was monitored in response to excitation at alternating 340 nm and 380 nm wavelengths at a frequency of 0.67 Hz; intracellular Ca^2+ measurements are shown at 340/380 nm ratios obtained from groups of 35-45 single cells.

Series [2] deals with rats. Conditions: rat, in vivo.
Series [3] addresses T2, TRPC5 (Homo sapiens, UniProt Q9UL62).
T2 construct: expressed in transfected cells; host or cells: HEK293 (transient transfection)
T2 sequence (Q9UL62 1-973): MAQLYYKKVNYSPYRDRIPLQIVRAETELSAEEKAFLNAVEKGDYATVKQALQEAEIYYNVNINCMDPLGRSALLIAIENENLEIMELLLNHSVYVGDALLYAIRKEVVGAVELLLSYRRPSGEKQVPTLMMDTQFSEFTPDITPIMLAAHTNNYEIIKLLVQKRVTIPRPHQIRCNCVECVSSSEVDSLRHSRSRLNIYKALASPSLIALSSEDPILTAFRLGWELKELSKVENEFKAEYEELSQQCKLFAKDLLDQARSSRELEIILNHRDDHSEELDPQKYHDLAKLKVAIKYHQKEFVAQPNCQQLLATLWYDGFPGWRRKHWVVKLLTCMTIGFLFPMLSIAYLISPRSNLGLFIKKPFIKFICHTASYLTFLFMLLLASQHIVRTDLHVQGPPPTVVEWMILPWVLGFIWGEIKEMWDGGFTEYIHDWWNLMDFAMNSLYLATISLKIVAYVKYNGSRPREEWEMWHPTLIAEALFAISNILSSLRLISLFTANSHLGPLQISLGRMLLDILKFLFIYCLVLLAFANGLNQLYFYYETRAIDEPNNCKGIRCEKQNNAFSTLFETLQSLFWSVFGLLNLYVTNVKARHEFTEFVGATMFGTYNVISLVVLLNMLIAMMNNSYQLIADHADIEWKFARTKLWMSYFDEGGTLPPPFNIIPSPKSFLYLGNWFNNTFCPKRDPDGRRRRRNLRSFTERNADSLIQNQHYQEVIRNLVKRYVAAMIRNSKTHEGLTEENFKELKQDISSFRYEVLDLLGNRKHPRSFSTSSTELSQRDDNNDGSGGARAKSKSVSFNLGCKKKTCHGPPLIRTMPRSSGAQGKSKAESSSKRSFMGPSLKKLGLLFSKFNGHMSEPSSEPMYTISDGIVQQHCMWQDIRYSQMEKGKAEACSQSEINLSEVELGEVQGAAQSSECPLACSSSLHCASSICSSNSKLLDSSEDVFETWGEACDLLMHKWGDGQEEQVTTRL
In words: FIG. 4 TRPC5 overexpressing cells, fura, OAG in the presence of Ca2+. Format: cell-based. The conditions noted are these: TRPC5 O/E cells, N=4. From the text: The assay was done in the presence of Ca^2+. OAG (1-Oleoyl-2-acetyl-sn-glycerol) is a cell permeable DAG analog and directly activates these TRPC channels (i.e. TRPC4 and TRPC5).

Turning to `CCC(=O)N(C)c1ccc(Cl)c(Cl)c1` [ELP-004, N-(3,4-dichlorophenyl)-N-methylpropanamide], the IC50 in series [1] is 1000 to 2000 nM; in series [3] (OAG, Ca2+ present) it was 11 nM. Further, the “oral LD50” value in series [2] was over 2.5 g/kg body weight. For the same compound, in series [3], the “maximal inhibition of TRPC5 against the >50% threshold” value is reported as “does not reach the threshold of >50% inhibition”.
